Experimental data from patent US20210208130A1, “ASSAYS FOR CELL-BASED THERAPIES OR TREATMENTS” (The Regents of the University of California, priority 2018, published 2021).

System: Human Retinoblastoma (hRB) Y79 (ATCC HTB-18) cells
Assay: Fluorescence-based (CellTiter-Blue, resazurin) cell viability potency assay with sodium butyrate insult
Conditions: 2, 4, 8 mM sodium butyrate; 72 hours incubation
Description: In the following examples, Human Retinoblastoma (hRB) Y79 (ATCC® HTB-18™) cells were expanded and maintained for use by culturing in ATCC®-formulated RPMI-1640 medium supplemented with 20% fetal bovine serum. The cells were maintained according to ATCC® recommendations. Human retinal progenitor cells (hRPCs) and human retinal pigment epithelium cells (hRPE cells) were isolated from 18-20 week human fetuses and propagated in standard medium (SM) comprising Advanced DMEM/F12 with 1×N−2 supplement, 1×GlutaMax-1, 20 ng/ml human FGF-basic protein and 20 ng/ml human EGF protein.
In the following experiments, conditioned medium (CM) was collected from hRPCs, hRB cells or hRPE grown in SM for 48 hours (with replacement of the SM after 24 hours). Cells were harvested and counted after each CM collection.
First, 12.5×10^3, 2.5×10^4, 5.0×10^4, 1.0×10^5 and 2.0×10^5 Human Retinoblastoma (hRB) Y79 (ATCC® HTB-18™) cells were plated in five separate wells of a 96 well assay plate and incubated in 50 μl SM. […] Resorufin is highly fluorescent, meaning that the fluorescence signal generated can be used to determine the viability of the cells incubated with Resazurin.
The fluorescence of each well was measured after incubation with resazurin. Fluorescence signals were read at an excitation wavelength of 520 nm and an emission wavelength of 580-640 nm. […]

`CCCC(=O)[O-].[Na+]` [sodium butyrate] was tested, and the “fluorescence signal (cell proliferation and viability) with higher concentrations of sodium butyrate” value was “decreased fluorescence signals”.
